US11524966B1 (Valo Early Discovery, Inc., priority 2017, dated 2022)

molecular target: T1, USP25 (USP25-His6, Boston Biochem E-546) (Homo sapiens, UniProt Q9UHP3); assay: Ubiquitin-Rhodamine 110 Assay for USP25 Activity, Example A-2; type: biochemical; conditions: Ubiquitin-Rhodamine 110 assay, Example A-2; read-out: USP25 A-2 IC50 range
T1 construct: His6; purchased Boston Biochem E-546
T1 sequence (Q9UHP3 1-1055): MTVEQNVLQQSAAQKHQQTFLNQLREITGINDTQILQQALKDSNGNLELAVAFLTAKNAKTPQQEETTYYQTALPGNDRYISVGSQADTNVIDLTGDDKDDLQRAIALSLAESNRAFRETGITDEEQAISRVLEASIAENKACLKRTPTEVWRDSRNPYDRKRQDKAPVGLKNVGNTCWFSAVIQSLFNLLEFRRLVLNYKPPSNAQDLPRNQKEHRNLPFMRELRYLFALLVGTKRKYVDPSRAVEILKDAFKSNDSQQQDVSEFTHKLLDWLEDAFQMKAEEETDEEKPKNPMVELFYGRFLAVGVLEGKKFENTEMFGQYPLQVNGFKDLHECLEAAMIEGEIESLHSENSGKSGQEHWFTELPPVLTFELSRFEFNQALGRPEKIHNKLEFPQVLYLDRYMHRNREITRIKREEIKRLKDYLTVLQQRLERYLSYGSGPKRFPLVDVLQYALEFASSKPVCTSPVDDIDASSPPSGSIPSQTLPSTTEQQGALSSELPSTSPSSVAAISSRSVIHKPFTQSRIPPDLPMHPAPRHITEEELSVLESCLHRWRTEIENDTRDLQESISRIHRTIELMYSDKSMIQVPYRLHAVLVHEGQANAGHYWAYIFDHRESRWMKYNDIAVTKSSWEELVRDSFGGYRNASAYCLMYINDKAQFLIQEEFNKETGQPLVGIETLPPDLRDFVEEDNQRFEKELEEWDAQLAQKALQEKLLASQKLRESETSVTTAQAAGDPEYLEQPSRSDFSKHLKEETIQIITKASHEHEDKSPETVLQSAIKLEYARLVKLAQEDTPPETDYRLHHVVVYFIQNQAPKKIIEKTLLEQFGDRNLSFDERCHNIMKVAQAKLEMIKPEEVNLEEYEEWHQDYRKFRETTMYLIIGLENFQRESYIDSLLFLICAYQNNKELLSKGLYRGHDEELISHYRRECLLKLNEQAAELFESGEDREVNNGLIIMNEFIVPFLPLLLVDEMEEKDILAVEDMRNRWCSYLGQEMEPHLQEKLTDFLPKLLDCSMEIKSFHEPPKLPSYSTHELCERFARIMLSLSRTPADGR
Outline: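 75 pM USP25-His6 was preincubated 30 min with compound (10-point 3-fold series, 25 μM–1.3 nM) in pH 8.0 Tris buffer with BME, BGG and Triton X-100. Then 25 nM Ub-Rh110 (<<Km) was added for 45 min at room temperature, stopped with citric acid, fluorescence read at 485/535 nm, IC50 by 4-parameter fit.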

First: Cc1ccc2c(N)c(C(=O)N[C@H]3COc4cc(N5CC[C@H]6CCNC[C@H]65)ccc4C3)sc2n1 [Example 224, N-[(3R)-7-[(3aR,7aS)-octahydro-1H-pyrrolo[2,3-c]pyridin-1-yl]-3,4-dihydro-2H-1-benzopyran-3-yl]-3-amino-6-methylthieno[2,3-b]pyridine-2-carboxamide]
Second: Cc1ccc2c(N)c(C(=O)N[C@H]3COc4cc(N5CC[C@@H]6CCNC[C@@H]65)ccc4C3)sc2n1 [Example 225]
The IC50 of the first is higher: 50 to 200 nM for the first, 1 to 50 nM for the second.

`Cc1cc(C)c2c(N)c(C(=O)N[C@H]3COc4cc(N5CC[C@H]6CNC[C@H]65)ccc4C3)sc2n1` [Example 226, N-[(3R)-7-[(3aS,6aS)-octahydropyrrolo[2,3-c]pyrrol-1-yl]-3,4-dihydro-2H-1-benzopyran-3-yl]-3-amino-4,6-dimethylthieno[2,3-b]pyridine-2-carboxamide] and `Cc1cc(C)c2c(N)c(C(=O)N[C@H]3COc4cc(N5CC[C@@H]6CNC[C@@H]65)ccc4C3)sc2n1` [Example 227, N-[(3R)-7-[(3aR,6aR)-octahydropyrrolo[2,3-c]pyrrol-1-yl]-3,4-dihydro-2H-1-benzopyran-3-yl]-3-amino-4,6-dimethylthieno[2,3-b]pyridine-2-carboxamide] fall in the same range of IC50: 50 to 200 nM for the first, 50 to 200 nM for the second.

Compared with `N#Cc1c(N2CC3CCC(C2)N3)cc(F)c2c1OC[C@H](NC(=O)c1cnc3c(c1)[C@@H]1C[C@@H]1CN3)C2` [Example 228, (6aS,7aR)-N-[(3R)-8-cyano-7-{3,8-diazabicyclo[3.2.1]octan-3-yl}-5-fluoro-3,4-dihydro-2H-1-benzopyran-3-yl]-5H,6H,6aH,7H,7aH-cyclopropa[c]1,8-naphthyridine-2-carboxamide], `N#Cc1c(N2CC3CCC(C2)N3)cc(F)c2c1OC[C@H](NC(=O)c1cnc3c(c1)[C@H]1C[C@H]1CN3)C2` [Example 229, (6aR,7aS)-N-[(3R)-8-cyano-7-{3,8-diazabicyclo[3.2.1]octan-3-yl}-5-fluoro-3,4-dihydro-2H-1-benzopyran-3-yl]-5H,6H,6aH,7H,7aH-cyclopropa[c]1,8-naphthyridine-2-carboxamide] is higher in IC50: 200 to 2000 nM for the first, greater than 2000 nM for the second. The first is the more potent here.

First: Cc1cc(C)c2c(N)c(C(=O)N[C@H]3COc4c(C#N)c(N5CC6CCC(C5)N6)cc(F)c4C3)sc2n1 [Example 230, 3-amino-N-[(3R)-8-cyano-7-{3,8-diazabicyclo[3.2.1]octan-3-yl}-5-fluoro-3,4-dihydro-2H-1-benzopyran-3-yl]-4,6-dimethylthieno[2,3-b]pyridine-2-carboxamide]
Second: Cc1ccc2c(N)c(C(=O)N[C@H]3COc4cc(N5CC[C@H]6CC[C@@H](N)C[C@H]65)ccc4C3)sc2n1 [Example 231, N-[(3R)-7-[(3aR,6R,7aR)-6-amino-octahydro-1H-indol-1-yl]-3,4-dihydro-2H-1-benzopyran-3-yl]-3-amino-6-methylthieno[2,3-b]pyridine-2-carboxamide]
The IC50 of the first is higher: 200 to 2000 nM for the first, 1 to 50 nM for the second. The second is the more potent here.

Compared with `Cc1ccc2c(N)c(C(=O)N[C@H]3COc4cc(N5CC[C@H]6CC[C@H](N)C[C@H]65)ccc4C3)sc2n1` [Example 232, N-[(3R)-7-[(3aR,6S,7aR)-6-amino-octahydro-1H-indol-1-yl]-3,4-dihydro-2H-1-benzopyran-3-yl]-3-amino-6-methylthieno[2,3-b]pyridine-2-carboxamide], `Cc1ccc2c(N)c(C(=O)N[C@H]3COc4cc(N5CC[C@@H]6CC[C@@H](N)C[C@@H]65)ccc4C3)sc2n1` [Example 233, N-[(3R)-7-[(3aS,6R,7aS)-6-amino-octahydro-1H-indol-1-yl]-3,4-dihydro-2H-1-benzopyran-3-yl]-3-amino-6-methylthieno[2,3-b]pyridine-2-carboxamide] is lower in IC50: 50 to 200 nM for the first, 1 to 50 nM for the second.

For `Cc1ccc2c(N)c(C(=O)N[C@H]3COc4cc(N5CC[C@@H]6CC[C@H](N)C[C@@H]65)ccc4C3)sc2n1` [Example 234, N-[(3R)-7-[(3aS,6S,7aS)-6-amino-octahydro-1H-indol-1-yl]-3,4-dihydro-2H-1-benzopyran-3-yl]-3-amino-6-methylthieno[2,3-b]pyridine-2-carboxamide], the IC50 was 50 to 200 nM.
